Source: paper PMC6630718, “Discovery of Novel UV-Filters with Favorable Safety Profiles in the 5-Arylideneimidazolidine-2,4-dione Derivatives Group” (Molecules, 2019)
Where two headings read alike, the source gives them in different places.

Tests used:
[1] = In vitro photoprotection study of 2% (w/w) macrogol formulations on PMMA plates; conditions: for UVA PF / UVA/UVB Ratio / λc (critical wavelength): 2% (w/w) macrogol formulation F1 (Triacetin 4.8%); for SPFin vitro: 2% (w/w) macrogol formulation F1 (Tween 20, PEG-400, PEG-1500, Triacetin 4.8%)
Description: The composition of formulations and concentration of tested compounds were based on their limited solubility. N-monosubstituted compounds 2a–2e were insoluble at desirable concentrations in the typical solvents used in cosmetic formulations such as alcohols, triacetin, surfactants, and co-surfactants. To dissolve compounds 2a and 2b before incorporation to the formulation DMSO: Tween 20 (1:9 w/w) was used, for less soluble 2c–2e it was necessary to use DMSO alone as solvent. […] Thus the detailed composition of the formulations is as follows: F1–Tween 20 43.2%, PEG-400 25%, PEG-1500 25%, Triacetin 4.8%, tested compound 2%; F2–Tween 20 43.2%, PEG-400 25%, PEG-1500 25%, DMSO 4.8%, tested compound 2%; F3–PEG-400 25%, PEG-1500 25%, DMSO 48%, tested compound 2%. Considering the disadvantages of currently reported macrogol formulations and the low concentration achieved for the tested compounds (2%), we plan to work on cosmetic emulsions containing the most promising derivatives at higher concentrations as well as required excipients including preservatives, antioxidants, etc. This research will be carried out in the near future.
Tested compounds and commercial UV filters as reference standards were incorporated to a neutral macrogel formulation in the concentration of 2%. Prior to the incorporation, compounds 3a–3e and 4f–4h and reference UV-filters were dissolved in a triacetin:Tween 20 (1:9) solvent system. For compounds 2a–2e it was necessary to use DMSO. The final composition of the macrogol formulations is presented in the photoprotective activity section.
In vitro photoprotection study was performed according to EN ISO 24443:2012 [71] with slight modifications. Formulation with tested compound (32.5 mg) was applied on a polymethylmethacrylate plate (PMMA) with the application area 25 cm^2 and 5 µm roughness value to simulate the skin surface (Schonberg GmbH, Hamburg, Germany). As a reference a PMMA plate treated with approximately 15 µL of glycerin was used. Measurements were carried out by reflectance spectrophotometry with SPF-290AS Analyser (Solar Light Company, Glenside, PA, USA) equipped with integrating sphere controlled by WinSPF version X.X. software. For each sample two plates were prepared, absorbance measures were performed on 6 different positions of the plate from 290 to 400 nm with 1 nm steps. The results were expressed as an average of data from 12 scans.

[2] = Photostability in macrogol formulations on PMMA plates (solar light simulator); type: physicochemical; conditions: for % of Initial AUC / % of Initial SPFin vitro / % of Initial UVA PF: after 1 h irradiation at 500 W/m^2, formulation F1; for new photoproduct (besides photoisomer), relative peak area: post-irradiation chromatogram; for decrease of AUC after irradiation: macrogol formulation F1; for percentage of photoproducts content: post-irradiation chromatograms
Protocol: After irradiation of thin layer of formulations applied on PMMA plates, their photoprotective parameters were determined and compared with the pre-irradiation results. The study gives an overview on functional photostability of the tested compounds. It is an important test, because the photostability of some compounds in low concentrated solutions may meaningfully differ from results obtained for higher concentrations used in sunscreen products. […] In the present study both UVB and UVA-absorbers were tested, so the changes in SPFin vitro, UVA PF and AUC after irradiation are taken into account as a measure of photostability.
(§1) The photostability evaluation of compounds was performed both in methanol solutions and in macrogol formulations. Irradiation of samples according to previous studies was conducted for 1 h at 500 W/m^2 (cumulative dose of ultraviolet radiation 218 kJ/m^2) with solar light simulator (Suntest CPS+, Atlas, Linsengericht, Germany) equipped with an optical filter cutting off wavelengths shorter than 290 nm and IR-block filter to neutralize thermal effects. The UV absorption spectrum of the samples were analysed post-irradiation and compared with pre-irradiation results. UPLC-MS/MS analyses were also performed.
(§2) Methanol solutions were tested at concentration 25 or 50 µM in quartz cuvettes with the PTFE stopper to prevent evaporation or leaking of the solvent. Macrogol formulations (2% w/w) were tested on PMMA plates (1.3 mg/cm^2). After post-irradiation measure of UV absorption, exposed and unexposed plates were washed with 5 mL of methanol, then mixtures were filtered and analysed by UPLC-MS/MS. All analyses were performed in duplicates.

[3] = Ultraviolet spectroscopy in methanol solutions; type: physicochemical; conditions: for Absorption Range: scan range 290–400 nm
Protocol: Spectra with a scan range of 290–400 nm were recorded in 50 or 25 μM methanol solutions, in 1 cm path length, 1.5 mL quartz cuvettes on a U-2800 double beam spectrophotometer (Hitachi, Tokyo, Japan) controlled by UV Solution version 2.2 software. The molar extinction coefficient at maximum absorption (εmax) of tested compounds was determined in methanol as the slope of the linear regression of absorbance vs. concentration of tested compound (from 10 to 50 μM or 2.5 to 30 μM).

[4] = Photostability in methanol solutions (solar light simulator); type: physicochemical; design: λmax pre-irradiation: unit not given beside the values; conditions: methanol solution; for % of initial AUC post-irradiation / λmax post-irradiation: 1h irradiation at 500 W/m2
Protocol: as §1, §2

[5] = In vitro stability in mouse liver microsomes; type: in vitro ADME; conditions: mouse, mouse liver microsomes
Protocol: Mouse liver microsomes (MLMs) were used to investigate the phase I metabolism of selected compounds (2c, 2d, 3b, 4g, 5a) and the reference substance BP-2. Samples composed of test compound (20 µM), MLMs (0.8 mg/mL) and potassium phosphate buffer (100 mM, pH 7.4) were preincubated prior to addition of NADPH-regenerating system. NADPH-regenerating system contained NADP, glucose-6-phosphate, glucose-6-phosphate dehydrogenase and potassium phosphate buffer (100 mM, pH 7.4). Control incubations were performed in the absence of the NADPH-regenerating system and in case of esters (2c, 2d, 3b and 4g) without the mouse liver microsomes solution to determine spontaneous hydrolysis. Incubations were conducted at 37 °C for at least 15 min up to 60 min. The reactions were stopped by the addition of 250 μL ice-cold methanol containing internal standard PTX (20 μM). The mixture was then centrifuged. Supernatant analysis was performed using UPLC/MS (Waters Corporation). The assays were repeated two times. The in vitro half times (t1/2) for test compounds were determined from the slope of the linear regression of ln % parent compound remaining versus incubation time. The calculated t1/2 was incorporated into the following equation to obtain intrinsic clearance: (Clint) = (volume of incubation [µL]/ protein in the incubation [mg]) × 0.693 / t1/2 [74].

Row | % of Initial AUC [2] | % of Initial SPFin vitro [2] | % of Initial UVA PF [2] | εmax [3] | λmax [3] | Absorption Range [3] | λmax pre-irradiation [4] | % of initial AUC post-irradiation [4] | λmax post-irradiation [4] | melting point | SMILES | UVA PF [1] | UVA/UVB Ratio [1] | λc (critical wavelength) [1] | SPFin vitro [1] | other results
1 | 88.19% | 83.31% | 103.50% | 13980 M⁻¹ cm⁻¹ | 295 nm | 290–335 nm | 295 | 122.34% | 301 | 47 to 49 °C | CCOC(=O)CN1C(=O)/C(=C/c2ccccc2)N(CC(=O)OCC)C1=O [Compound 3a, Diethyl 2,2′-((Z)-4-benzylidene-2,5-dioxoimidazolidine-1,3-diyl)diacetate] | 1.29 ± 0.09 | 0.16 ± 0.02 | 331 nm | 2.97 ± 0.45 | hypsochromic shift of λmax compared to N-monosubstituted derivatives [3]: 21 nm
2 | 85.29% | 88.73% | 86.59% | 17010 M⁻¹ cm⁻¹ | 321 nm | 290–367 nm | 321 | 119.42% | 329 | 44 to 46 °C | CCOC(=O)CN1C(=O)/C(=C/c2ccc(OCC)cc2)N(CC(=O)OCC)C1=O [Compound 3c, Diethyl 2,2′-((Z)-4-(4-ethoxybenzylidene)-2,5-dioxoimidazolidine-1,3-diyl)diacetate] | 2.46 ± 0.01 | 1.05 ± 0.03 | 370 nm | 2.49 ± 0.08 | new photoproduct (besides photoisomer), relative peak area ([2]; macrogol formulation): 2.8%
3 | 94.01% | 89.92% | 97.66% | 17310 M⁻¹ cm⁻¹ | 333 nm | 290–374 nm | 333 | 111.55% | 342 | 88 to 90 °C | CCOC(=O)CN1C(=O)/C(=C/c2ccc(OC)cc2OC)N(CC(=O)OCC)C1=O [Compound 3d, Diethyl 2,2′-((Z)-4-(2,4-dimethoxybenzylidene)-2,5-dioxoimidazolidine-1,3-diyl)diacetate] | 2.35 ± 0.03 | 1.63 ± 0.01 | 383 nm | 1.84 ± 0.02 | new photoproduct (besides photoisomer), relative peak area ([2]; macrogol formulation): no additional peaks besides the photoisomer
4 | 79.59% | 81.28% | 87.10% | 14200 M⁻¹ cm⁻¹ | 329 nm | 290–380 nm | 329 | 129.32% | 340 | 80 to 82 °C | CCOC(=O)CN1C(=O)/C(=C/c2ccc(OC)c(OC)c2)N(CC(=O)OCC)C1=O [Compound 3e, Diethyl 2,2′-((Z)-4-(3,4-dimethoxybenzylidene)-2,5-dioxoimidazolidine-1,3-diyl)diacetate] | 2.17 ± 0.11 | 1.43 ± 0.02 | 382 nm | 1.87 ± 0.08 | 
5 | 27.92% | 62.24% | 25.98% | 41477 M⁻¹ cm⁻¹ | 354 nm | 295–389 nm | 354 | 59.12% | 354 | 99 to 100 °C | CCOC(=O)CN1C(=O)/C(=C/C=C/c2ccccc2)N(CC(=O)OCC)C1=O [Compound 4f, Diethyl 2,2′-((Z)-2,4-dioxo-5-((E)-3-phenylallylidene)imidazolidyne-1,3-diyl)diacetate] | 8.43 ± 1.35 | 2.58 ± 0.06 | 381 nm | 2.51 ± 0.17 | photostability (in words) ([2]; macrogol formulation): unsatisfactory; decrease of AUC after irradiation [2]: 72.1%; percentage of photoproducts content ([2]; macrogol formulation): 22.9%; decrease of AUC after irradiation [4]: 40.9%
6 | 69.19% | 82.22% | 62.38% | 34987 M⁻¹ cm⁻¹ | 370 nm | 290–400 nm | 370 | 98.55% | 370 | 134 to 135 °C | CCOC(=O)CN1C(=O)/C(=C/C=C/c2ccccc2OC)N(CC(=O)OCC)C1=O [Compound 4h, Diethyl 2,2′-((Z)-4-((E)-3-(2-methoxyphenyl)allylidene)-2,5-dioxoimidazolidine-1,3-diyl)diacetate] | 4.28 ± 0.02 | 2.58 ± 0.01 | 389 nm | 1.94 ± 0.04 | decrease of AUC after irradiation [2]: 30.8%; percentage of photoproducts content ([2]; macrogol formulation): 11.0%; decrease of AUC after irradiation [4]: 1.5%
7 |  |  |  | 27310 M⁻¹ cm⁻¹ | 316 nm | 290–346 nm |  |  |  | 215 to 217 °C | O=C(O)CN1C(=O)N/C(=C\c2ccccc2)C1=O [Compound 5a, (Z)-2-(4-Benzylidene-2,5-dioxoimidazolidin-1-yl)acetic acid] |  |  |  |  | half-life at 20 µM ([5]; pH 7.4, mouse liver microsomes 0.8 mg/mL, 20 µM compound, NADPH-regenerating system, 37 °C, read-out: t ½): 23.1 h; microsomal CLint at 20 µM ([5]; pH 7.4, mouse liver microsomes, calculated from t1/2): < 1 µL/min/mg; half-life at 20 µM ([5]; pH 7.4, mouse liver microsomes, read-out: t1/2): > 23 h
